Results reported in ChEMBL document CHEMBL5113519, “Discovery of Novel Imidazo[4,5-c]quinoline Derivatives to Treat Inflammatory Bowel Disease (IBD) by Inhibiting Multiple Proinflammatory Signaling Pathways and Restoring Intestinal Homeostasis” (J Med Chem, 2022).
Active and inactive are the calls of the source. The calls are words filed in the database; no cut-off is given here.

Experiments:
THP1-Dual [1] = assay: Anti-inflammatory activity against LPS-stimulated human THP1-Dual cells assessed as reduction in STAT1 phosphorylation level incubated for 6 hrs by Western blot analysis; type: functional, cell-based; conditions: dose 0.33-3 µM, DDE = dose-dependent effect
[2] = Toxicity in mouse assessed as abnormal change in heart at 20 to 50 mg/kg, IG measured upto 2 weeks; type: organism-based; conditions: in vivo, po, 336 h, dose 20-50 mg/kg
Mus musculus [3] = assay: Antiinflammatory activity in DSS-induced acute colitis C57BL/6 mouse model assessed as reduction stool softness by measuring DAI score at 1 to 3 mg/kg, po administered daily and measured upto 11 days; type: functional, organism-based; conditions: dose 1-3 mg/kg, time <= 11.0 day
[4] = Cytotoxicity against human THP1-Dual cells assessed as inhibition of cell growth measured after 24 hrs by CCK-8 method; type: toxicity, cell-based
Mus musculus [5] = assay: Anti-inflammatory bowel disease activity in DSS-induced acute enteritis mouse model assessed as decrese in lactobacillus abundance at 3 mg/kg; type: functional, organism-based
[6] = Cytotoxicity against human GM00637 cells assessed as inhibition of cell growth measured after 24 hrs by CCK-8 method; type: toxicity, cell-based
THP1-Dual [7] = assay: Inhibition of LPS induced IL-23A expression in human THP1-Dual cells at 1 uM incubated for 6 hrs; type: functional, cell-based
[8] = Cytotoxicity against human HUVEC cells assessed as inhibition of cell growth measured after 24 hrs by CCK-8 method; type: toxicity, cell-based
THP1-Dual [9] = assay: Downregulation of TNF alpha in human THP1-Dual cells at 1 uM incubated for 6 hrs; type: functional, cell-based
Mus musculus [10] = assay: Anti-inflammatory bowel disease activity in DSS-induced acute enteritis mouse model assessed as reversal of intestinal microbiota at 3 mg/kg; type: functional, organism-based
[11] = Toxicity in mouse assessed as effect on white blood cell number at 50 mg/kg, IG measured upto 2 weeks; type: organism-based; conditions: in vivo, po, 336 h
THP1-Dual [12] = assay: Anti-inflammatory activity against LPS-stimulated human THP1-Dual cells assessed as inhibition of IL-8 secretion incubated for 6 hrs followed by LPS stimulation by Western blot analysis; type: functional, cell-based; conditions: dose 0.33-3 µM, DDE = dose-dependent effect
Mus musculus [13] = assay: Antiinflammatory activity in DSS-induced acute colitis C57BL/6 mouse model assessed as reduction in colon villi integrity in colon by measuring histopathological score at 1 to 3 mg/kg, po by H and E staining based analysis; type: functional, organism-based; conditions: dose 1-3 mg/kg
THP1-Dual [14] = assay: Inhibition of LPS induced IL-1 beta expression in human THP1-Dual cells at 1 uM incubated for 6 hrs; type: functional, cell-based
THP1-Dual [15] = assay: Downregulation of complement system in human THP1-Dual cells at 1 uM incubated for 6 hrs; type: functional, cell-based
THP1-Dual [16] = assay: Anti-inflammatory activity against LPS-stimulated human THP1-Dual cells assessed as reduction in STAT3 phosphorylation level incubated for 6 hrs by Western blot analysis; type: functional, cell-based; conditions: dose 0.33-3 µM, DDE = dose-dependent effect
[17] = Toxicity in mouse assessed as effect on red blood cell number at 20 to 50 mg/kg, IG measured upto 2 weeks; type: organism-based; conditions: in vivo, po, 336 h, dose 20-50 mg/kg
Mus musculus [18] = assay: Anti-inflammatory activity in TNBS induced IBD BALB/c mouse model assessed as reduction in stool softness by measuring disease activity index score at 1 to 5 mg/kg via oral gavage administered daily for 12 days; type: functional, organism-based; conditions: dose 1-5 mg/kg, time 12.0 day
THP1-Dual [19] = assay: Anti-inflammatory activity against LPS-stimulated human THP1-Dual cells assessed as reduction in phosphorylation of NF-kappa B level incubated for 6 hrs by Western blot analysis; type: functional, cell-based; conditions: dose 0.33-3 µM, DDE = dose-dependent effect
[20] = Toxicity in mouse assessed as abnormal change in spleen at 20 to 50 mg/kg, IG measured upto 2 weeks; type: organism-based; conditions: in vivo, po, 336 h, dose 20-50 mg/kg
[21] = Toxicity in mouse assessed as effect on neutrophils number at 20 to 50 mg/kg, IG measured upto 2 weeks; type: organism-based; conditions: in vivo, po, 336 h, dose 20-50 mg/kg
THP1-Dual [22] = assay: Inhibition of LPS induced IL12b expression in human THP1-Dual cells at 1 uM incubated for 6 hrs; type: functional, cell-based
Mus musculus [23] = assay: Anti-inflammatory activity in TNBS induced IBD BALB/c mouse model assessed as increase in survival probability at 5 mg/kg via oral gavage administered daily for 12 days; type: functional, organism-based; conditions: time 12.0 day
THP1-Dual [24] = assay: Anti-inflammatory activity against LPS-stimulated human THP1-Dual cells assessed as inhibition of IL-6 secretion incubated for 6 hrs followed by LPS stimulation by Western blot analysis; type: functional, cell-based; conditions: dose 0.33-3 µM, DDE = dose-dependent effect
Mus musculus [25] = assay: Antiinflammatory activity in DSS-induced acute colitis C57BL/6 mouse model assessed as recovery of colon length at 1 to 3 mg/kg, po administered daily and measured upto 11 days; type: functional, organism-based; conditions: dose 1-3 mg/kg, time <= 11.0 day
[26] = Toxicity in mouse assessed as behavioral changes at 20 to 50 mg/kg, IG measured upto 2 weeks; type: organism-based; conditions: in vivo, po, 336 h, dose 20-50 mg/kg
[27] = Toxicity in mouse assessed as abnormal change in kidney at 50 mg/kg, IG measured upto 2 weeks; type: organism-based; conditions: in vivo, po, 336 h

Cc1nc2cnc3ccc(-c4cc(Cl)c(O)c(Cl)c4)cc3c2n1C1CCN(C)CC1
Activity (THP1-Dual [1]): Dde | Activity [2]: Non-Toxic | Activity (Mus musculus [3]): Active | IC50 at 24 h [4]: 4.3 µM | Activity (Mus musculus [5]): Active | IC50 at 24 h [6]: > 10 µM | inhibition (THP1-Dual [7]): Active | IC50 at 24 h [8]: > 10 µM | Activity (THP1-Dual [9]): Active | Activity (Mus musculus [10]): Active | Activity [11]: Non-Toxic | Activity (THP1-Dual [12]): Dde | Activity (Mus musculus [13]): Active | inhibition (THP1-Dual [14]): Active | Activity (THP1-Dual [15]): Active | Activity (THP1-Dual [16]): Dde | Activity [17]: Non-Toxic | Activity (Mus musculus [18]): Active | Activity (THP1-Dual [19]): Dde | Activity [20]: Non-Toxic | Activity [21]: Non-Toxic | inhibition (THP1-Dual [22]): Active | Activity (Mus musculus [23]): Active | Activity (THP1-Dual [24]): Dde | Activity (Mus musculus [25]): Active | Activity [26]: Non-Toxic | Activity [27]: Non-Toxic
